In patent US20240130988A1, “Use of stilbene compounds in the preparation of anti-tumor drugs” (Guangzhou AnHao Pharmaceutical Technology CO., LTD., priority 2022, published 2024):

Key:
[1] = system: human gastric cancer SGC7901; experiment: Compound 6 combined with paclitaxel, human gastric cancer SGC7901 xenograft in nude mice; format: in vivo; details: paclitaxel 10 mg/kg iv, compound 6 200 mg/kg ip, combination 10 + 200
Excerpt: Experimental method: The model of human gastric cancer SGC7901 transplant tumor in nude mice was established by subcutaneously inoculating human gastric cancer SGC7901 cell lines into the armpits of nude mice. Cells were inoculated in an amount of 1×10^6, and after formation of the transplanted tumors by inoculation, the cells were passed 3 generations in nude mice before use. The vigorous growth of tumor tissue was cut into approximate 1.5 mm^3, and homogenized under sterile conditions, to prepare 1×10^7/mL of cell suspension. 0.1 mL of cell suspension was subcutaneously inoculated into the right armpit of nude mice. For transplanted tumors in nude mice, the diameter was measured with vernier caliper. After the tumor grew to 100 mm^3, the animals were randomly divided into groups, with 6 mice in each group. […] The measurement frequency of tumor diameter was once every three days. The dosage by volume was 0.1 mL/20 g. The mice in the negative control group were given an equal amount of physiological saline by intravenous injection. The effect of combined medicaments was evaluated based on the Q value calculated by Jin's formula: […]
Ea+b represents the tumor inhibitory rate of the combined medicaments, while Ea and Eb represent the tumor inhibitory rates of medicament A and medicament B, respectively.

B16 mouse melanoma = experiment: Lung metastasis model of B16 mouse melanoma; format: in vivo, C57BL/6 mice
Experimental: Under sterile conditions, […] mouse melanoma cells in logarithmic growth period were cultured, and then prepared as 2.8×10^5/mL of cell suspension, which was inoculated into the tail vein of C57BL/6 mice at 0.2 mL/mouse. Compound 6 was administered to the mice on the next day. Three weeks later, each animal was sacrificed, and the lungs of mice in each group were dissected. The number of metastatic colonies in the lungs of mice was detected and counted, and the average number of tumor colonies in each group was used to calculate the tumor inhibitory rate according to the formula: Tumor inhibitory rate %=[(The average number of colonies in the control group−the average number of colonies in the treatment group)/The average number of colonies in the control group]×100%, The results are shown in Table 16.

Terminal weight [1]: 22.9 ± 1.2 g
Animal weight (g) End (B16 mouse melanoma; 40 mg/kg iv × 10qod): 20.2/25.4 g
Animal weight (g) End (B16 mouse melanoma; 60 mg/kg iv × 10qod): 20.1/25.7 g
Animal weight (g) End (B16 mouse melanoma; 80 mg/kg iv × 10qod): 19.9/25.7 g
Animal weight (g) End (B16 mouse melanoma; 120 mg/kg iv × 10qod): 20.2/25.6 g
Structure (SMILES): COc1ccc(/C=C(/C(=O)O)c2cc(OC)c(OC)c(OC)c2)cc1O [Compound 6, (E)-3-(3-hydroxy-4-methoxyphenyl)-2-(3,4,5-trimethoxyphenyl)acrylic acid]
RTV (d 21) [1]: 6.21 ± 1.88
Tumor inhibitory rate % [1]: 54.07%
Metastasis inhibitory rate % (B16 mouse melanoma; 40 mg/kg iv × 10qod): 24.11%
Number of lung tumor colonies χ ± SD (B16 mouse melanoma; 40 mg/kg iv × 10qod): 40.1 ± 9.0
Metastasis inhibitory rate % (B16 mouse melanoma; 60 mg/kg iv × 10qod): 29.03%
Number of lung tumor colonies χ ± SD (B16 mouse melanoma; 60 mg/kg iv × 10qod): 37.5 ± 11.7
Metastasis inhibitory rate % (B16 mouse melanoma; 80 mg/kg iv × 10qod): 35.84%
Number of lung tumor colonies χ ± SD (B16 mouse melanoma; 80 mg/kg iv × 10qod): 33.9 ± 10.8
Metastasis inhibitory rate % (B16 mouse melanoma; 120 mg/kg iv × 10qod): 34.14%
Number of lung tumor colonies χ ± SD (B16 mouse melanoma; 120 mg/kg iv × 10qod): 34.8 ± 13.4
Inhibition of metastasis of B16 mouse melanoma, in words (B16 mouse melanoma; 40-120 mg/kg iv × 10qod): inhibit the metastasis of B16 mouse melanoma in a dose-dependent manner
